# Reference: article PMC9356275, “A quantitative high-throughput screen identifies compounds that lower expression of the SCA2-and ALS-associated gene ATXN2” (The Journal of Biological Chemistry, 2022)
# Structures can show the parent of a compound that is named as a salt. Where two headings read alike, the source gives them in different places.
# How the values were obtained:
# ATXN2-luc [1] = assay: NCATS qHTS (LOPAC pilot, primary and confirmation): ATXN2-luc in S2 cells, 1536-well, Steady-Glo; assay type: cell-based, human; details: for AC50 / Efficacy / Inf Activity / Log AC50: LOPAC library screening optimization; for Curve Class: LOPAC library (1,280 compounds) screening optimization, signed sub-classes (-1.1, -2.2, -3 ...); for Efficacy / Inf Activity: curve-fit parameter
# Description: We next performed a pilot screen assay to optimize the 1536-well qHTS using S2 cells. […] Cytotoxicity was determined using a multiplexed viability assay (CellTiter-Fluor, a fluorescence-based viability assay using Gly-Phe-7-amino-4-trifluoromethylcoumarin substrate).
# CellTiter-Fluor was used to determine compound effect on cell viability, and Steady-Glo was used to measure luciferase in a multiplexed assay.
# The primary assay was conducted at the NCATS NIH Chemical Genomics Center laboratory. About 4 μl of S2 cell suspension in phenol red–free DMEM was dispensed into wells of 1536-well assay plates. […] Next, SteadyGlo luciferase substrate detection reagent (3 μl) was added to each well and incubated for an additional 5 min at room temperature. Luminescence was then measured on the ViewLux imager equipped with clear filters using a 2 s exposure. All screening operations were performed on a fully integrated robotic system (Kalypsys) containing one RX-130 and two RX-90 anthropomorphic robotic arms (Stäubli). Vehicle-only plates, with DMSO being pin-transferred to columns 5 to 48, were inserted uniformly at the beginning and the end of each library in order to monitor and record any shifts in assay performance.
# ATXN2-luc [2] = assay: MSSR pilot screen: ATXN2-luc luciferase assay (Bright-Glo) in H2 cells, single 10 μM dose; assay type: cell-based, human; details: H2 cells, single dose (title: 10 μM compound), overnight
# [3] = Homo sapiens, logarithm of AC50 (negative values), read-out: Log AC50 (converted)
# [4] = logarithm of AC50 (negative values)
SMILES,AC50 (ATXN2-luc [1]; [3]) [µM],"AC50 (ATXN2-luc [1]; Homo sapiens, read-out: AC50) [µM]","SD from mean (ATXN2-luc, Z-score) (ATXN2-luc [2]) [SD]",further results
CC1CNCCN1[S+](=O)([O-])c1cccc2cnccc12 (centres unmarked),22.4,22.4,–,–
Br.COc1cc(CC(C)N)c(OC)cc1Br (centres unmarked),15.8,15.8,–,Curve Class (ATXN2-luc [1]): -2.4; Efficacy (ATXN2-luc [1]): -57.1187; Inf Activity (ATXN2-luc [1]): -63.2991
COc1cc(C[C@@H](C)N)c(OC)cc1Br.Cl,39.8,39.8,–,Efficacy (ATXN2-luc [1]): -71.0454; Inf Activity (ATXN2-luc [1]): -73.0357
COc1cc(C[C@H](C)N)c(OC)cc1Br.Cl,28.2,28.2,–,Efficacy (ATXN2-luc [1]): -52.627; Inf Activity (ATXN2-luc [1]): -55.207
CC(C)NCC(O)COc1cccc2ccccc12 (racemic) [(±)-Propranolol hydrochloride],14.1,14.1,–,Curve Class (ATXN2-luc [1]): -2.2; Log AC50 (ATXN2-luc [1]; [4]): -4.6; AC50 (ATXN2-luc [1]; read-out: AC50): 25.1 µM
"Br.CC1C2Cc3ccc(O)cc3C1(C)CCN2CCc1ccccc1 (single isomer, unassigned; (+)) [(+)-Phenazocine hydrobromide]",17.8,17.8,–,Efficacy (ATXN2-luc [1]): -59.8542; Inf Activity (ATXN2-luc [1]): -62.9667
"Br.C[C@H]1C2Cc3ccc(O)cc3[C@]1(C)CCN2CCc1ccccc1 (single isomer, unassigned; (-)) [(-)-Phenazocine hydrobromide]",35.5,35.5,–,Efficacy (ATXN2-luc [1]): -71.0942; Inf Activity (ATXN2-luc [1]): -66.3244
O=C1C=CC(=O)c2ccccc21 [4-NAPHTHOQUINONE],–,–,-3.613,–
CC[C@H](O)C(C[C@H](C)N(C)C)(c1ccccc1)c1ccccc1.Cl [(+)-alpha-Methadol hydrochloride],35.5,35.5,–,Efficacy (ATXN2-luc [1]): -65.8804; Inf Activity (ATXN2-luc [1]): -66.2609
CC[C@@H](O)C(C[C@@H](C)N(C)C)(c1ccccc1)c1ccccc1.Cl [(-)-alpha-Methadol hydrochloride],31.6,31.6,–,Efficacy (ATXN2-luc [1]): -53.231; Inf Activity (ATXN2-luc [1]): -52.9785
CC(C)NC[C@H](O)COc1cccc2ccccc12 [(S)-Propranolol hydrochloride],17.8,17.8,–,Curve Class (ATXN2-luc [1]): -2.2; Log AC50 (ATXN2-luc [1]; [4]): -4.5; AC50 (ATXN2-luc [1]; read-out: AC50): 31.6 µM
Nc1ncnc2c1c(I)cn2[C@@H]1C[C@H](N)[C@@H](O)[C@H]1O [A-134974 dihydrochloride hydrate],10,10,–,Curve Class (ATXN2-luc [1]): -2.1; Log AC50 (ATXN2-luc [1]; [4]): -4.9; AC50 (ATXN2-luc [1]; read-out: AC50): 12.6 µM
C[n+]1c2cc(N)ccc2cc2ccc(N)cc21.[Cl-] [ACRIFLAVINIUM HYDROCHLORIDE],–,–,-4.148,–
CCCCCCc1ccc(O)cc1O.Nc1c2ccccc2nc2ccccc12 [ACRISORCIN],–,–,-3.600,–
CC[C@@]1(O)C[C@H](O[C@H]2C[C@H](N(C)C)[C@H](O)[C@H](C)O2)c2c(cc3c(c2O)C(=O)c2c(O)cccc2C3=O)[C@H]1C(=O)OC [AKLAVINE HYDROCHLORIDE],–,–,-3.741,–
Nc1c2ccccc2nc2ccccc12 [AMINACRINE],–,–,-4.103,–
N=c1ccn2c(n1)O[C@H]1[C@H](O)[C@@H](CO)O[C@H]12 [ANCITABINE HYDROCHLORIDE],–,–,-3.031,–
CC(=O)O[C@@H]1C[C@@]2(C)[C@H](c3ccoc3)C[C@H]3O[C@]32[C@]2(C)C(=O)C(O)=C3C(C)(C)C(=O)C=C[C@]3(C)[C@@H]12 [ANTHOTHECOL],–,–,-3.020,–
Clc1ccc2c(c1)C(N1CCNCC1)=Nc1ccccc1O2 [Amoxapine],11.2,11.2,–,Curve Class (ATXN2-luc [1]): -2.2; Efficacy (ATXN2-luc [1]): -60.2873; Inf Activity (ATXN2-luc [1]): -56.594
COc1ccc(C[C@H]2NC[C@H](O)[C@H]2OC(C)=O)cc1 [Anisomycin],–,–,-4.015,–
O=C(Cc1ccc(Cl)c(Cl)c1)N1CCCCC1CN1CCCC1 (centres unmarked) [BRL 52537 hydrochloride],35.5,35.5,–,Efficacy (ATXN2-luc [1]): -82.8908; Inf Activity (ATXN2-luc [1]): -85.8462
OC(CCN1CCCCC1)(c1ccccc1)C1CC2C=CC1C2 (centres unmarked) [Biperiden hydrochloride],17.8,17.8,–,Curve Class (ATXN2-luc [1]): -2.2; Log AC50 (ATXN2-luc [1]; [4]): -4.6; AC50 (ATXN2-luc [1]; read-out: AC50): 25.1 µM
CC(C)/N=c1\cc2n(-c3ccc(Cl)cc3)c3ccccc3nc-2cc1Nc1ccc(Cl)cc1 [CLOFAZIMINE],–,–,-2.792,–
CCc1cccc(N(C)C(N)=Nc2cccc3ccccc23)c1 [CNS-1102],12.6,12.6,–,Curve Class (ATXN2-luc [1]): -2.2; Log AC50 (ATXN2-luc [1]; [4]): -4.7; AC50 (ATXN2-luc [1]; read-out: AC50): 20 µM

SMILES,AC50 (ATXN2-luc [1]; [3]) [µM],"AC50 (ATXN2-luc [1]; Homo sapiens, read-out: AC50) [µM]","SD from mean (ATXN2-luc, Z-score) (ATXN2-luc [2]) [SD]",further results
CO[C@H]1C=C[C@@]23c4cc5c(cc4CN(C[C@@H]2O)[C@H]3C1)OCO5 [CRINAMINE],–,–,-3.651,–
Nc1ccn([C@@H]2O[C@H](CO)[C@@H](O)[C@@H]2O)c(=O)n1 [CYTARABINE],–,–,-3.681,–
COc1cccc2c1C(=O)c1c(O)c3c(c(O)c1C2=O)C[C@@](O)(C(C)=O)C[C@@H]3O[C@H]1C[C@H](N)[C@H](O)[C@H](C)O1 [Daunorubicin hydrochloride],–,–,-4.155,–
Cc1c2ccncc2c(C)c2c1[nH]c1ccccc12 [Ellipticine],–,–,-3.485,–
CC(C)=CCC[C@]1(C)C=Cc2c(O)c3c(c(CC=C(C)C)c2O1)O[C@]12C(=C[C@@H]4C[C@H]1C(C)(C)O[C@@]2(C/C=C(/C)C(=O)O)C4=O)C3=O [GAMBOGIC ACID],–,–,-4.841,–
COC(=O)C[C@](O)(CCCC(C)(C)O)C(=O)O[C@@H]1C(OC)=C[C@]23CCCN2CCc2cc4c(cc2[C@H]13)OCO4 [HOMOHARRINGTONINE],–,–,-3.117,–
CC(=O)[C@]1(O)Cc2c(O)c3c(c(O)c2[C@@H](O[C@H]2C[C@H](N)[C@H](O)[C@H](C)O2)C1)C(=O)c1ccccc1C3=O [IDARUBICIN HCl],–,–,-2.944,–
CC(=O)[C@]1(O)Cc2c(O)c3c(c(O)c2[C@@H](O[C@H]2C[C@H](N)[C@H](O)[C@H](C)O2)C1)C(=O)c1ccccc1C3=O [IDARUBICIN],–,–,-2.719,–
CC(C)[N+](C)(CCC(C(N)=O)(c1ccccc1)c1ccccc1)C(C)C [ISOPROPAMIDE IODIDE],–,–,-4.073,–
O[C@H]1[C@H]2c3cc4c(cc3CN3CCC(=C[C@@H]1O)[C@H]23)OCO4 [Lycorine hydrochloride],–,–,-2.968,–
Cl.Cl.O=C1c2c(O)ccc(O)c2C(=O)c2c(NCCNCCO)ccc(NCCNCCO)c21 [MITOXANTHRONE HYDROCHLORIDE],–,–,-4.333,–
O=C1c2c(O)ccc(O)c2C(=O)c2c(NCCNCCO)ccc(NCCNCCO)c21 [Mitoxantrone dihydrochloride],–,–,-3.666,–
O=C(Nc1ccc([N+](=O)[O-])cc1Cl)c1cc(Cl)ccc1O [Niclosamide],–,–,-4.393,–
N=C1C=CC(=C(c2ccc(N)cc2)c2ccc(N)cc2)C=C1 [PARAROSANILINE PAMOATE],–,–,-2.740,–
O=C1C=C2C(=CCOC2O)O1 (centres unmarked) [PATULIN],–,–,-3.651,–
COC(=O)[C@]1(C)CC[C@]2(C)CC[C@]3(C)C4=CC=C5C(=CC(=O)C(O)=C5C)[C@]4(C)CC[C@@]3(C)[C@@H]2C1 [PRISTIMERIN],–,–,-3.883,–
COc1ccc(C[C@H](N)C(=O)N[C@H]2[C@@H](O)[C@H](n3cnc4c(N(C)C)ncnc43)O[C@@H]2CO)cc1 [PUROMYCIN HYDROCHLORIDE],–,–,-3.716,–
COc1cc(/C=C/C(=O)N2CCC=CC2=O)cc(OC)c1OC [Piperlongumine],–,–,-2.973,–
COc1ccc(C[C@H](N)C(=O)N[C@H]2[C@@H](O)[C@H](n3cnc4c(N(C)C)ncnc43)O[C@@H]2CO)cc1 [Puromycin dihydrochloride],–,–,-4.723,–
CCN(CC)CCCC(C)Nc1c2ccc(Cl)cc2nc2ccc(OC)cc12 (centres unmarked) [Quinacrine dihydrochloride dihydrate],–,–,-3.270,–
CC[C@@]1(O)C[C@H](O)c2c(cc3c(c2O)C(=O)c2c(O)ccc(O)c2C3=O)[C@H]1C(=O)OC [RUTILANTINONE],–,–,-2.722,–
COc1cc([C@@H]2c3cc4c(cc3[C@@H](O[C@@H]3O[C@@H]5CO[C@@H](c6cccs6)O[C@H]5[C@H](O)[C@H]3O)[C@H]3COC(=O)[C@H]23)OCO4)cc(OC)c1O [TENIPOSIDE],–,–,-2.832,–
C[CH2][Hg][S]c1ccccc1C(=O)[O-].[Na+] [THIMEROSAL],–,–,-5.645,–
C[C@H]1CC[C@]2(NC1)O[C@H]1C[C@H]3[C@@H]4CC[C@H]5C[C@@H](O[C@@H]6O[C@H](CO)[C@H](O[C@@H]7O[C@H](CO)[C@@H](O)[C@H](O[C@@H]8OC[C@@H](O)[C@H](O)[C@H]8O)[C@H]7O[C@@H]7O[C@H](CO)[C@@H](O)[C@H](O)[C@H]7O)[C@H](O)[C@H]6O)CC[C@]5(C)[C@H]4CC[C@]3(C)[C@H]1[C@@H]2C [TOMATINE],–,–,-4.999,–
